Results as given in ChEMBL document CHEMBL2424528, “Novel tetrahydropyran analogs as dipeptidyl peptidase IV inhibitors: Profile of clinical candidate (2R,3S,5R)-2- (2,5-difluorophenyl)-5-(4,6-dihydropyrrolo [3,4-c]pyrazol-5-(1H)-yl)tetrahydro-2H-pyran-3-amine (23) [corrected]” (Bioorg Med Chem Lett, 2013).
Activity calls are given as the source filed them. The rule behind the calls is not given here.

Columns and labels:
Prolyl endopeptidase FAP = target: T1, Prolyl endopeptidase FAP (Homo sapiens, UniProt Q12884); test: Inhibition of human FAP
T1 sequence (Q12884 whole entry): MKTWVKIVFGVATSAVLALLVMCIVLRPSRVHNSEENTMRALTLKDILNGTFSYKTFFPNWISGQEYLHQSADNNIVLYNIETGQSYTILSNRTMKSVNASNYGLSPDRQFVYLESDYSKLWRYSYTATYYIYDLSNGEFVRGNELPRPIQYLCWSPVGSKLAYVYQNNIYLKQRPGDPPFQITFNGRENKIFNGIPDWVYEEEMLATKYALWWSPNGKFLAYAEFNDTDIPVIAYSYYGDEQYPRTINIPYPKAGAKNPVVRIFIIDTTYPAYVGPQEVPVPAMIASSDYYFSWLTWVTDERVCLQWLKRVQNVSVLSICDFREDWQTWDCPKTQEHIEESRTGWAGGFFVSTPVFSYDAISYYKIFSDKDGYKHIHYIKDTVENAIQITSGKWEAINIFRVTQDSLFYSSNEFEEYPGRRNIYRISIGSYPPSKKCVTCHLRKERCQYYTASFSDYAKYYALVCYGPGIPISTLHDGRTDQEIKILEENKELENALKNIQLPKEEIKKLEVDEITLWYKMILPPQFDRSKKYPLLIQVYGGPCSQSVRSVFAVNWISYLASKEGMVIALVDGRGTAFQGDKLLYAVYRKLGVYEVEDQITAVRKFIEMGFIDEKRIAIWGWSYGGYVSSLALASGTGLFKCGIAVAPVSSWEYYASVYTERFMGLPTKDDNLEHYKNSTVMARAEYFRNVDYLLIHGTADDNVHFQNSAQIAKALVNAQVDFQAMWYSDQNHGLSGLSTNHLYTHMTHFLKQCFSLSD

Dipeptidyl peptidase 2 = Dipeptidyl peptidase 2 (Homo sapiens, UniProt Q9UHL4); test: Inhibition of QPP (unknown origin)
Dipeptidyl peptidase 8 = Dipeptidyl peptidase 8 (Homo sapiens, UniProt Q6V1X1); test: Inhibition of human DPP8
[1] = Terminal half life in rat at 1 mg/kg, iv and 2 mg/kg, po; assay type: ADME, organism-based; settings: in vivo, read-out: beta t1/2 (converted)
[2] = Plasma clearance in beagle dog at 1 mg/kg, iv and 2 mg/kg, po; assay type: ADME, organism-based, Canis lupus familiaris
Mus musculus [3] = species: Mus musculus; test: Induction in plasma GLP-1 level in lean mouse; assay type: functional, organism-based
Mus musculus [4] = test: Antidiabetic activity in DPP-4i-deficient lean mouse assessed as inhibition of blood glucose excursion at 3 mg/kg administered 1 hr prior to dextrose challenge by oral glucose tolerance test relative to control; assay type: functional, organism-based; parameters: dose 3 mg/kg
[5] = Terminal half life in rhesus monkey at 1 mg/kg, iv and 2 mg/kg, po; assay type: ADME, organism-based, Macaca mulatta; settings: in vivo, read-out: beta t1/2 (converted)
[6] = target: Voltage-dependent L-type calcium channel subunit alpha-1C (Homo sapiens, UniProt Q13936); test: Inhibition of Cav1.2 channel (unknown origin)
[7] = target: Voltage-gated inwardly rectifying potassium channel KCNH2 (Homo sapiens, UniProt Q12809); test: Inhibition of human ERG channel
Rhesus monkey = test: Dose normalized AUC in rhesus monkey at 2 mg/kg, po; assay type: ADME, organism-based, Macaca mulatta; parameters: dose 2 mg/kg, route oral; settings: in vivo
Mus musculus [8] = test: Antidiabetic activity in wild type lean mouse assessed as inhibition of blood glucose excursion at 3 mg/kg administered 1 hr prior to dextrose challenge by oral glucose tolerance test; assay type: functional
[9] = Cmax in beagle dog at 2 mg/kg, po; assay type: ADME, organism-based, Canis lupus familiaris; parameters: dose 2 mg/kg, route oral; settings: in vivo
[10] = Cmax in rhesus monkey at 2 mg/kg, po; assay type: ADME, organism-based, Macaca mulatta; parameters: dose 2 mg/kg, route oral; settings: in vivo
Mus musculus [11] = test: In vivo inhibition of DPP4 in lean mouse model at 0.3 mg/kg administered 10 mins prior to dextrose challenge; assay type: functional; parameters: scale not given: the % may be the effect or the level left
[12] = Oral bioavailability in beagle dog at 2 mg/kg; assay type: ADME, organism-based, Canis lupus familiaris; settings: in vivo
Mus musculus [13] = test: Antidiabetic activity in lean mouse assessed as reduction in blood glucose AUC at 0.1 mg/kg, po administered 1 hr prior to dextrose challenge by oral glucose tolerance test; assay type: functional; parameters: scale not given: the % may be the effect or the level left
[14] = Terminal half life in beagle dog at 1 mg/kg, iv and 2 mg/kg, po; assay type: ADME, organism-based, Canis lupus familiaris; settings: in vivo, read-out: beta t1/2 (converted)
[15] = Inhibition of cytochrome P450 (unknown origin); assay type: ADME; settings: human
[16] = Tmax in rat at 1 mg/kg, iv and 2 mg/kg, po; assay type: ADME, organism-based; settings: in vivo
[17] = Volume of distribution at steady state in rat at 1 mg/kg, iv and 2 mg/kg, po; assay type: ADME, organism-based; settings: in vivo, read-out: Vdss
Mus musculus [18] = test: Induction in plasma GLP-1 level in lean mouse at 1 mg/kg; assay type: functional, organism-based; parameters: dose 1 mg/kg
[19] = Tmax in rhesus monkey at 1 mg/kg, iv and 2 mg/kg, po; assay type: ADME, organism-based, Macaca mulatta; settings: in vivo
[20] = Oral bioavailability in rat at 2 mg/kg; assay type: ADME, organism-based; settings: in vivo
Canis familiaris [21] = test: Dose normalized AUC in beagle dog at 2 mg/kg, po; assay type: ADME, organism-based, Canis lupus familiaris; parameters: dose 2 mg/kg, route oral; settings: in vivo
Mus musculus [22] = test: In vivo inhibition of DPP4 in lean mouse model administered 10 mins prior to dextrose challenge; assay type: functional, organism-based
Mus musculus [23] = test: Antidiabetic activity in lean mouse assessed as reduction in blood glucose AUC at 3 mg/kg, po administered 1 hr prior to dextrose challenge by oral glucose tolerance test; assay type: functional; parameters: scale not given: the % may be the effect or the level left
[24] = Volume of distribution at steady state in beagle dog at 1 mg/kg, iv and 2 mg/kg, po; assay type: ADME, organism-based, Canis lupus familiaris; settings: in vivo, read-out: Vdss
Rattus norvegicus = test: Dose normalized AUC in rat at 2 mg/kg, po; assay type: ADME, organism-based; parameters: dose 2 mg/kg, route oral; settings: in vivo
[25] = Plasma concentration in lean mouse at 0.3 mg/kg administered 10 mins prior to dextrose challenge; assay type: ADME, organism-based; parameters: dose 0.3 mg/kg
Mus musculus [26] = test: Antidiabetic activity in orally dosed lean mouse assessed as reduction in blood glucose excursion administered 1 hr prior to dextrose challenge by oral glucose tolerance test; assay type: functional, organism-based
[27] = Tmax in beagle dog at 1 mg/kg, iv and 2 mg/kg, po; assay type: ADME, organism-based, Canis lupus familiaris; settings: in vivo
[28] = Oral bioavailability in rhesus monkey at 2 mg/kg; assay type: ADME, organism-based, Macaca mulatta; settings: in vivo
[29] = Plasma clearance in rhesus monkey at 1 mg/kg, iv and 2 mg/kg, po; assay type: ADME, organism-based, Macaca mulatta
[30] = Plasma clearance in rat at 1 mg/kg, iv and 2 mg/kg, po; assay type: ADME, organism-based
[31] = Cmax in rat at 2 mg/kg, po; assay type: ADME, organism-based; parameters: dose 2 mg/kg, route oral; settings: in vivo
[32] = Volume of distribution at steady state in rhesus monkey at 1 mg/kg, iv and 2 mg/kg, po; assay type: ADME, organism-based, Macaca mulatta; settings: in vivo, read-out: Vdss
[33] = Dissociation constant, pKa of the compound; assay type: physicochemical
Canis familiaris [34] = test: Cardiotoxicity in dog model assessed as QTc prolongation up to 30 mg/kg; assay type: toxicity, organism-based, Canis lupus familiaris; parameters: dose 30 mg/kg; settings: in vivo
Canis familiaris [35] = test: Cardiotoxicity in cardiovascular dog model assessed as QTc prolongation at 3 mg/kg; assay type: toxicity, organism-based, Canis lupus familiaris, Heart; parameters: dose 3 mg/kg; settings: in vivo

Sequence of Dipeptidyl peptidase 8 (Q6V1X1 whole entry): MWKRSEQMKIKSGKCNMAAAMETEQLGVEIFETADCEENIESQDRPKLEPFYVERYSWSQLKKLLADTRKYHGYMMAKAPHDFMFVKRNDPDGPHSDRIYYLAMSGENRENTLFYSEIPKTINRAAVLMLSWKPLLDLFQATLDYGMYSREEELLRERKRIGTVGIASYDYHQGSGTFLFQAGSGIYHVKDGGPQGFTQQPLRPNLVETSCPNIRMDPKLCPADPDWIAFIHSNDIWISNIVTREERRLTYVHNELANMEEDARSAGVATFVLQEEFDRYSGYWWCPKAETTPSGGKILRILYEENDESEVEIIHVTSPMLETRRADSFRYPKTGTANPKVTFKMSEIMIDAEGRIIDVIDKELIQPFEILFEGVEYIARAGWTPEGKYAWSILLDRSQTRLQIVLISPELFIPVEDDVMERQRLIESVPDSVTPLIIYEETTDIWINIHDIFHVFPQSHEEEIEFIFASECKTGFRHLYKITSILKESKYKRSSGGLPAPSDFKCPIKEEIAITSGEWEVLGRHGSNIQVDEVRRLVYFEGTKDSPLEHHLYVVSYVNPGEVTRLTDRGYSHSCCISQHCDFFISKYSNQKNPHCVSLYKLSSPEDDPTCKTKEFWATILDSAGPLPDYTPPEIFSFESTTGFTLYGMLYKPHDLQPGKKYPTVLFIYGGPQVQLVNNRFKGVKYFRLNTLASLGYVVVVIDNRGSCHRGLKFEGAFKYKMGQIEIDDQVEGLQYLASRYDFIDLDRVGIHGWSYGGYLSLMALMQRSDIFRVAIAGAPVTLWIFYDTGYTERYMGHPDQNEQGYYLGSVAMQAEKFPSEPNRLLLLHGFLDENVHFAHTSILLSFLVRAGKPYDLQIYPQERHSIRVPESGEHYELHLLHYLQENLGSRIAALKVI
Sequence of Voltage-gated inwardly rectifying potassium channel KCNH2 (Q12809 whole entry): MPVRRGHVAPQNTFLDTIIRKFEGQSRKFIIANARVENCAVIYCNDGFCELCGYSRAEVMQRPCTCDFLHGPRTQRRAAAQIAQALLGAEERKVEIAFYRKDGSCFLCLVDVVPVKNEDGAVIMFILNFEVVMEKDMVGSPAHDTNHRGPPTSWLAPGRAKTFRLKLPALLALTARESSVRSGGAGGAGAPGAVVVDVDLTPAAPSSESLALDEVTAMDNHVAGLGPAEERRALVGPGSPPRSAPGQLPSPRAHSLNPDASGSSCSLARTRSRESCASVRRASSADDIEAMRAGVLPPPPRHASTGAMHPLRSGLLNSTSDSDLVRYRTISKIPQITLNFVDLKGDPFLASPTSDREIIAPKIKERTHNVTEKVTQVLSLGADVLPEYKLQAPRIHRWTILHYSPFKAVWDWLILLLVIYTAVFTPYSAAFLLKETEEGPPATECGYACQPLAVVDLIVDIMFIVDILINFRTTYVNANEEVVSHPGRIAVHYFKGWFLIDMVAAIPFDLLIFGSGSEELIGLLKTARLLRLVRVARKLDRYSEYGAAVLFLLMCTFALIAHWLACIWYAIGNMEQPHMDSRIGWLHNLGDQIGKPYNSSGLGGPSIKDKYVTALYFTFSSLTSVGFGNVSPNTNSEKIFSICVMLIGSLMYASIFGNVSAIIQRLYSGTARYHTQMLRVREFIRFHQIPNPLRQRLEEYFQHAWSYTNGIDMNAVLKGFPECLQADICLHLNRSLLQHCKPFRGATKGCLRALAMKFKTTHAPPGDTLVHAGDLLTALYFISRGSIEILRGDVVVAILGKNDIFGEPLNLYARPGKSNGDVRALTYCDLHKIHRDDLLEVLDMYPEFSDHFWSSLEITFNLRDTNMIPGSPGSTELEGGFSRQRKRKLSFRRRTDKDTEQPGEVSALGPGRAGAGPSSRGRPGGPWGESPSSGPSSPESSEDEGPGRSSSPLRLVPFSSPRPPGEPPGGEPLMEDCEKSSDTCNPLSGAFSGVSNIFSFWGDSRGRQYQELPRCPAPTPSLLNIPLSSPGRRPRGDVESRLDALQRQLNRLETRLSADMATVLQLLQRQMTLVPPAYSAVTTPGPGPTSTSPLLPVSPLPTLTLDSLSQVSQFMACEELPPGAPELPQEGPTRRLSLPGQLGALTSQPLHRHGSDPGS
Sequence of Voltage-dependent L-type calcium channel subunit alpha-1C (Q13936 whole entry): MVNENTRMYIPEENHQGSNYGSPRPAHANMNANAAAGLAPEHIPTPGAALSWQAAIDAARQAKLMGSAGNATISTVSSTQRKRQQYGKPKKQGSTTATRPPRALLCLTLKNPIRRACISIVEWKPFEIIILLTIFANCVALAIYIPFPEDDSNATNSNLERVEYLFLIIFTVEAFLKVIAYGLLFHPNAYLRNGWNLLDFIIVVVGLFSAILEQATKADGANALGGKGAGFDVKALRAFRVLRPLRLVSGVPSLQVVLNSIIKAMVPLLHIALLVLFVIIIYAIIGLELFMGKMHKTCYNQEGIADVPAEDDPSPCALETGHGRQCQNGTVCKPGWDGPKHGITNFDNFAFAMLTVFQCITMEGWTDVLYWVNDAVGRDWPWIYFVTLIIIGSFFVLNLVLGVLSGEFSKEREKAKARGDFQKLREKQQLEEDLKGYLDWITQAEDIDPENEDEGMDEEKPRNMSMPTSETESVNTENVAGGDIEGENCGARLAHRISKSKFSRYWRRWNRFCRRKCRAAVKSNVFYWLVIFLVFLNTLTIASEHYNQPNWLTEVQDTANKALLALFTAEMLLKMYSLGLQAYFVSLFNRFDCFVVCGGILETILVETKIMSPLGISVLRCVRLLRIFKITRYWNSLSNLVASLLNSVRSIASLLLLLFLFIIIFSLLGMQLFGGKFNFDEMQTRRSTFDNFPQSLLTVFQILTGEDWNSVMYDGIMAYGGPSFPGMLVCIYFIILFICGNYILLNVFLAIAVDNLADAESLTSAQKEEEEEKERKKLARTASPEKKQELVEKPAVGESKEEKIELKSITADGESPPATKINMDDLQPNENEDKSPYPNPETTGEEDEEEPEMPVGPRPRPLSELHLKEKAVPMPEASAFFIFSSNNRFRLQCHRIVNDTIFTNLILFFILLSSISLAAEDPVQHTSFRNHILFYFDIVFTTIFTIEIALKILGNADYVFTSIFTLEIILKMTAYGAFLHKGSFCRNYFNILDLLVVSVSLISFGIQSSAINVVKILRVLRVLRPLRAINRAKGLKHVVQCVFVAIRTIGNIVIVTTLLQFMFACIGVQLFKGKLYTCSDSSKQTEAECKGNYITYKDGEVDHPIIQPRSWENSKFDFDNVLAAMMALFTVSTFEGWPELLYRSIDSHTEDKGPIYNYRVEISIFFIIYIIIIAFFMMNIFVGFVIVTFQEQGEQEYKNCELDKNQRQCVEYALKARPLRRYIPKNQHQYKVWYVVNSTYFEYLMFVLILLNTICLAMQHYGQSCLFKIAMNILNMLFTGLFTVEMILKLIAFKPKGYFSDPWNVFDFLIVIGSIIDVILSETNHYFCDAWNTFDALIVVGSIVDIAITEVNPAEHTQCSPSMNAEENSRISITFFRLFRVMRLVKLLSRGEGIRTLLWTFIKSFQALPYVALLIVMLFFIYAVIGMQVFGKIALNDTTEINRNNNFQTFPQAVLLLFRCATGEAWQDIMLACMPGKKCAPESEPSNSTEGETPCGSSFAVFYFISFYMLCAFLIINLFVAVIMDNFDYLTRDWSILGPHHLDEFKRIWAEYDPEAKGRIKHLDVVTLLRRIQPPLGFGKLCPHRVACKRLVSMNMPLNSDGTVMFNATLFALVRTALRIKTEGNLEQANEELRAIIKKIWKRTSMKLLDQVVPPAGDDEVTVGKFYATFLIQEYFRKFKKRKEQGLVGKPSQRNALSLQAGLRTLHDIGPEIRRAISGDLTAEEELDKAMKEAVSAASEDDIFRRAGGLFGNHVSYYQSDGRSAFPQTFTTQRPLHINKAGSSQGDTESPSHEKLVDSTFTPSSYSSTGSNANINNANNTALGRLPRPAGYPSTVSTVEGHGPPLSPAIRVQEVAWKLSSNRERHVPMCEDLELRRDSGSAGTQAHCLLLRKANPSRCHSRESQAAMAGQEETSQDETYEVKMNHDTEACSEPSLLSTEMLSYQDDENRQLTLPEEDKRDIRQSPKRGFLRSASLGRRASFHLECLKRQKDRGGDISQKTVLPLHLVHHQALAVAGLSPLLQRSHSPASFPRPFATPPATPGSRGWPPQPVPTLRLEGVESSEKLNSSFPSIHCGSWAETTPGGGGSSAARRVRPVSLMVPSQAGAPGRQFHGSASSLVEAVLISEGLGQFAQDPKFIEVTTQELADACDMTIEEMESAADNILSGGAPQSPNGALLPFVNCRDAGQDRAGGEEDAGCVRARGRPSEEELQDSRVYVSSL

N[C@H]1C[C@@H](N2Cc3cn[nH]c3C2)CO[C@@H]1c1cc(F)ccc1Cl
IC50 (Prolyl endopeptidase FAP): > 100 µM
IC50 (Dipeptidyl peptidase 2): > 100 µM

N[C@H]1C[C@@H](N2Cc3cn[nH]c3C2)CO[C@@H]1c1ccc(F)cc1F
IC50 (Dipeptidyl peptidase 8): > 100 µM
IC50 (Prolyl endopeptidase FAP): > 100 µM

N[C@H]1C[C@@H](N2Cc3cn[nH]c3C2)CO[C@@H]1c1cc(F)c(F)cc1F
IC50 (Dipeptidyl peptidase 8): > 100 µM
IC50 (Prolyl endopeptidase FAP): > 6.4 µM

N[C@H]1C[C@@H](N2Cc3cn[nH]c3C2)CO[C@@H]1c1cc(F)ccc1F
half-life [1]: 6.3 h
clearance [2]: 2.7 mL/min/kg
Activity (Mus musculus [3]): Dose-dependent effect
inhibition (Mus musculus [4]): inactive
half-life [5]: 9.7 h
inhibition (INH) [6]: Not Active
inhibition (INH) ([7]; human): Not Active
AUC/dose (Rhesus monkey): 7.33 µM·h/mg/kg
inhibition in vivo at 3 mg/kg (Mus musculus [8]): 53%
Cmax [9]: 1920 nM
Cmax [10]: 1480 nM
Activity (Mus musculus [11]): >80%
bioavailability [12]: 83%
Activity (Mus musculus [13]): 27%
half-life [14]: 13 h
inhibition (INH) [15]: Not Active
Tmax [16]: 0.5 h
Vd [17]: 4.9 L/kg
Activity (Mus musculus [18]): Active
Tmax [19]: 1.1 h
bioavailability [20]: 70%
AUC/dose (Canis familiaris [21]): 16.1 µM·h/mg/kg
Activity (Mus musculus [22]): Dose-dependent effect
Activity (Mus musculus [23]): 47%
Vd [24]: 3 L/kg
AUC/dose (Rattus norvegicus): 3.72 µM·h/mg/kg
concentration at 10 min [25]: 260 nM
Activity (Mus musculus [26]): Dose-dependent effect
Tmax [27]: 3.5 h
bioavailability [28]: 72%
clearance [29]: 5.2 mL/min/kg
clearance [30]: 9.7 mL/min/kg
Cmax [31]: 800 nM
Vd [32]: 4.2 L/kg

CC1(C)c2cnc(C3CC3)nc2CN1[C@H]1CO[C@H](c2cc(F)ccc2F)[C@@H](N)C1
IC50 (Dipeptidyl peptidase 8): > 100 µM
IC50 (Prolyl endopeptidase FAP): > 100 µM

N[C@H]1C[C@@H](N2Cc3cnc(C(F)(F)F)nc3C2)CO[C@@H]1c1cc(F)c(F)cc1F
pKa [33]: 7.3
Activity (Canis familiaris [34]): Non-toxic

N[C@H]1C[C@@H](N2Cc3ccccc3O2)CO[C@@H]1c1cc(F)ccc1F
IC50 (Prolyl endopeptidase FAP): > 100 µM

N[C@H]1C[C@@H](N2CCn3c(nnc3C(F)(F)F)C2)CO[C@@H]1c1cc(F)ccc1F
IC50 (Dipeptidyl peptidase 8): > 100 µM
IC50 (Prolyl endopeptidase FAP): > 100 µM
IC50 (Dipeptidyl peptidase 2): > 100 µM

Cc1nc2c(o1)CN([C@H]1CO[C@H](c3cc(F)ccc3F)[C@@H](N)C1)C2
IC50 (Dipeptidyl peptidase 8): > 100 µM
IC50 (Prolyl endopeptidase FAP): > 100 µM
IC50 (Dipeptidyl peptidase 2): > 100 µM

N[C@@H](CC(=O)N1CCn2c(nnc2C(F)(F)F)C1)Cc1cc(F)c(F)cc1F
Activity (Mus musculus [26]): Active

N[C@H]1C[C@@H](N2Cc3cn[nH]c3C2)CO[C@@H]1c1cc(F)c(Cl)cc1F
IC50 (Dipeptidyl peptidase 8): > 100 µM
IC50 (Prolyl endopeptidase FAP): > 100 µM

N[C@H]1C[C@@H](N2Cc3nc(C(F)(F)F)[nH]c3C2)CO[C@@H]1c1cc(F)ccc1F
IC50 (Prolyl endopeptidase FAP): > 100 µM
IC50 (Dipeptidyl peptidase 2): > 100 µM

N[C@H]1C[C@@H](N2Cc3cnc(C4CC4)nc3C2)CO[C@@H]1c1cc(F)c(F)cc1F
IC50 [7]: > 30 µM
Activity (Canis familiaris [34]): Non-toxic

N[C@H]1C[C@@H](N2Cc3cn[nH]c3C2)CO[C@@H]1c1ccccc1Cl
IC50 (Dipeptidyl peptidase 8): > 100 µM
IC50 (Prolyl endopeptidase FAP): > 100 µM
IC50 (Dipeptidyl peptidase 2): > 100 µM

CC1(C)c2nc(C3CC3)ncc2CN1[C@H]1CO[C@H](c2cc(F)ccc2F)[C@@H](N)C1
IC50 (Dipeptidyl peptidase 8): > 100 µM

N[C@H]1C[C@@H](N2Cc3cnc(C(F)(F)F)nc3C2)CC[C@@H]1c1cc(F)c(F)cc1F
IC50 [7]: 4.8 µM
pKa [33]: 8.6
Activity (Canis familiaris [35]): > 5%

N[C@H]1C[C@@H](N2Cc3ccccc3C2=O)CO[C@@H]1c1cc(F)ccc1F
IC50 (Dipeptidyl peptidase 8): > 100 µM
IC50 (Prolyl endopeptidase FAP): > 100 µM
IC50 (Dipeptidyl peptidase 2): > 100 µM
